System: 7-week-old female C57BL/6N mice
Assay: GST-RANKL administration test (57 and 426 nmol)
Format: in vivo, mouse
Procedure: GST-RANKL was intraperitoneally administered 3 times to groups of 7-week-old female C57BL/6N mice (10 individuals each) at doses of 57 nmol (low dose) and 426 nmol (high dose) every 24 hours. Exsanguination was performed 1.5 hours after the 3rd administration. A group to which PBS was administered in the same manner as above was used as a control group for comparison.
The exsanguinated blood was subjected to measurement of serum bone resorption parameters (calcium, CTx, TRAP-5b) and serum osteogenesis parameters (osteocalcin and alkaline phosphatase (ALP)). Calcium was measured by the OCPC method (WAKO, 272-21801). CTx (Nordic Bioscience Diagnostics), TRAP-5b (IDS Ltd, SB-TR103), and osteocalcin (Biomedical Technologies Inc.) were measured by ELISA. ALP was measured by the Bessey-Lowry method (WAKO, 274-04401).
The following organs were collected from each exsanguinated mouse: the femur, the tibia, the cerebrum, the lungs, the heart, the liver, the thymus, the spleen, the kidneys, and the skin. Naturally occurring lesions were observed by HE staining of the cerebrum, the lungs, the heart, the liver, the thymus, the spleen, the kidneys, and the skin.
Regarding the femur, the cancellous bone was subjected to bone density measurement with the use of pQCT at points 0.6 mm, 0.8 mm, and 1.0 mm from the distal growth plate on the proximal side at the distal end of the femur. Regarding the tibia, tibia sections were prepared for bone morphology measurement. Measurement values were compared with those for a control group by the Dunnett method for testing.

[1] = high dose 426 nmol i.p. 3 times

How did the “abnormal findings and lesions in organs (HE staining)” value (57 and 426 nmol, cerebrum, lungs, heart, liver, thymus, spleen, kidneys, skin) turn out when “GST-RANKL: fused protein of Glutathione S-transferase with human RANKL residues 140-317, expressed in Escherichia coli, 47.0 kDa” was run?
The value was “not observed”.

What about the “femur bone morphology with micro CT” value (high dose 426 nmol) of the same substance?
The value was “significant bone decreases”.

What about the “serum ALP concentration” value (high dose 426 nmol) of the same substance?
The value was “did not vary”.

And the serum osteocalcin concentration (high dose 426 nmol)?
The serum osteocalcin concentration was “did not vary”.

And the “tibial osteoblast surface area” value (high dose 426 nmol)?
Its value is “significant osteoblast surface area increase”.

What about the tibial osteoclast number (high dose 426 nmol) of the same substance?
The tibial osteoclast number was “increased”.

And the “tibial trabecular number decrease” value (high dose 426 nmol)?
Its value is “approximately 50%”.

And the “tibial unit bone mass decrease” value (high dose 426 nmol)?
The value was “approximately 50%”.

And the “serum CTx concentration, fold as high as control” value [1]?
The value was “approximately 1.5 fold”.

And the “serum TRAP-5b concentration, fold as high as control” value [1]?
Its value is “approximately 1.5 fold”.

And the “serum Ca concentration, fold as high as control” value (high dose 426 nmol i.p. 3 times every 24 hours, 1.5 hours after 3rd administration)?
The value was “approximately 1.4 fold”.

And the “femur bone density decrease (pQCT)” value (high dose 426 nmol, 0.6 mm from distal growth plate)?
Its value is 10%.

What about the “femur bone density decrease (pQCT)” value (high dose 426 nmol, 0.8 mm) of the same substance?
Its value is 23%.

And the “femur bone density decrease (pQCT)” value (high dose 426 nmol, 1.0 mm)?
Its value is 20%.

And the “femur bone density (pQCT) vs control” value (low dose 57 nmol)?
The value was “no significant difference”.

And the “serum ALP concentration” value (low dose 57 nmol)?
Its value is “did not vary”.

And the serum osteocalcin concentration (low dose 57 nmol)?
The serum osteocalcin concentration was “did not vary”.

What about the tibial trabecular number (low dose 57 nmol) of the same substance?
The tibial trabecular number was “no decrease was observed”.

What about the “tibial unit bone mass” value (low dose 57 nmol) of the same substance?
The value was “no decrease was observed”.
